Experimental data from patent publication US20130196986A1 (priority 2010, published 2013).

Molecular target: T1, P2X7 receptor (Homo sapiens, UniProt Q99572)
T1 construct: stably expressing the full length P2X7 receptor; expressed in transfected cells
T1 sequence (Q99572 1-595): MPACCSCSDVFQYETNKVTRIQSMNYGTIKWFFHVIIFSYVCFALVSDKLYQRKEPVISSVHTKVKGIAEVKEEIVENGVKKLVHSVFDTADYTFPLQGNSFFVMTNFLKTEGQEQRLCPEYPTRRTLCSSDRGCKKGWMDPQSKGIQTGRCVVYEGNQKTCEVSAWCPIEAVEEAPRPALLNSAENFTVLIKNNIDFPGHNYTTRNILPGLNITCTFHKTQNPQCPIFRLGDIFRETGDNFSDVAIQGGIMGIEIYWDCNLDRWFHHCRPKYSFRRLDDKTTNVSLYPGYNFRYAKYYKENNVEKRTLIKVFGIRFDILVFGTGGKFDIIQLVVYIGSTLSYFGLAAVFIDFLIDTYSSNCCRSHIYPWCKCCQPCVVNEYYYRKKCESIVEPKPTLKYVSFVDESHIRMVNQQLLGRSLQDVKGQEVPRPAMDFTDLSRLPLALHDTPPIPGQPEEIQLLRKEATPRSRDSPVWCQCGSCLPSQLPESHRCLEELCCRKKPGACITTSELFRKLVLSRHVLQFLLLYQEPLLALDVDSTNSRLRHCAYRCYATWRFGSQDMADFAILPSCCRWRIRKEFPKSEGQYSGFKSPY
Assay: Ca++ flux assay (FLIPR) in P2X7-HEK-293 cell line stably expressing the full length P2X7 receptor, Bz-ATP activation
Assay type: cell-based
Conditions: P2X7-HEK-293 cells; agonist Bz-ATP; fluorescence as total area over 90 seconds; read-out: P2X7 Ca Flux hu IC50
Method: The ability of Triazolopyrazinone Compounds to inhibit P2X7 function can be determined in Ca^++ flux assay using a P2X7-HEK-293 cell line stably expressing the full length P2X7 receptor. The assay protocol is as described in Cheewatrakoolpong et al., Biochem. Biophys. Res. Commun. 332:17-27 (2005) with minor modification, and is as summarized hereinafter. Briefly, cells were plated in poly-D-lysine-coated wells, and incubated at 37° C. for 24 hours. Cells were then incubated for 1 hour with a loading buffer which contains a dye sensitive to changes in Ca^++ concentration (lx Calcium Plus no wash dye from Molecular Devices, Sunnyvale, Calif.). The test compounds were added to the wells in the dye loading step. Plates containing the wells were transferred to a Fluorometric Imaging Plate Reader (Molecular Devices, Sunnyvale, Calif.). The cells were activated by the addition of the P2X7 receptor agonist 2′(3) —O-(4-benzoylbenzoyl)adenosine 5′-triphosphate (Bz-ATP from Sigma-Aldrich, St. Louis, Mo.), and the fluorescence was monitored for 90 seconds. The fluorescent signal was determined as the total area over the 90 second run time. Using this protocol, representative Triazolopyrazinone Compounds, compounds 1471 were tested. Tables 3 to 6 show the concentration at which 50% of the maximum response in the Ca^++ was inhibited (IC50) for each of the test compounds.

SMILES | IC50 [nM]
Cc1c(Cl)cccc1-n1ccn2c(SCc3cc(Cl)cc(C(F)(F)F)c3)nnc2c1=O [Compound 78, 7-(3-chloro-2-methylphenyl)-3-(3-chloro-5-(trifluoromethyl)benzylthio)-[1,2,4]triazolo[4,3-a]pyrazin-8(7H)-one] | 597
Cc1c(Cl)cccc1-n1ccn2c(SCc3ccccc3-c3ccco3)nnc2c1=O [Compound 37, 7-(3-chloro-2-methylphenyl)-3-(2-(furan-2-yl)benzylthio)-[1,2,4]triazolo[4,3-a]pyrazin-8(7H)-one] | 97.4
Cc1c(Cl)cccc1-n1ccn2c(S(=O)(=O)Cc3cc(Cl)cc(Cl)c3)nnc2c1=O [Compound 161, 7-(3-chloro-2-methylphenyl)-3-(3,5-dichlorobenzylsulfonyl)-[1,2,4]triazolo[4,3-a]pyrazin-8(7H)-one] | 335
Cc1c(-n2ccn3c(S(=O)(=O)Cc4ccccc4-c4ccc(Cl)cc4)nnc3c2=O)cccc1C(F)(F)F [Compound 118, 3-((4′-chlorobiphenyl-2-yl)methylsulfonyl)-7-(2-methyl-3-(trifluoromethyl)phenyl)-[1,2,4]triazolo[4,3-a]pyrazin-8(7H)-one] | 6.9
O=c1c2nnc(SCc3ccccc3)n2ccn1-c1cccc(F)c1Cl [Compound 65, 3-(benzylthio)-7-(2-chloro-3-fluorophenyl)-[1,2,4]triazolo[4,3-a]pyrazin-8(7H)-one] | 189
O=c1c2nnc(S(=O)(=O)Cc3ccccc3)n2ccn1-c1cccc(C(F)(F)F)c1Cl [Compound 127, 3-(benzylsulfonyl)-7-(2-chloro-3-(trifluoromethyl)phenyl)-[1,2,4]triazolo[4,3-a]pyrazin-8(7H)-one] | 16.3
Cc1c(-n2ccn3c(S(=O)(=O)Cc4ccsc4)nnc3c2=O)cccc1C(F)(F)F [Compound 123, 7-(2-methyl-3-(trifluoromethyl)phenyl)-3-(thiophen-3-ylmethylsulfonyl)-[1,2,4]triazolo[4,3-a]pyrazin-8(7H)-one] | 12.4
Cc1c(Cl)cccc1-n1ccn2c(S(=O)(=O)Cc3ccccc3-c3cccs3)nnc2c1=O [Compound 151, 7-(3-chloro-2-methylphenyl)-3-(2-(thiophen-2-yl)benzylsulfonyl)-[1,2,4]triazolo[4,3-a]pyrazin-8(7H)-one] | 50.9
Cc1c(Cl)cccc1-n1ccn2c(SCc3cccc(I)c3)nnc2c1=O [Compound 77, 7-(3-chloro-2-methylphenyl)-3-(3-iodobenzylthio)-[1,2,4]triazolo[4,3-a]pyrazin-8(7H)-one] | 462
Cc1c(-n2ccn3c(S(=O)(=O)Cc4ccccc4-c4ccccc4)nnc3c2=O)cccc1C(F)(F)F [Compound 126] | 15.9
Cc1c(Cl)cccc1-n1ccn2c(SCc3ccccc3CN3CCOCC3)nnc2c1=O [Compound 39, 7-(3-chloro-2-methylphenyl)-3-(2-(rnorpholinornethyl)benzylthio)-[1,2,4]triazolo[4,3-a]pyrazin-8(7H)-one] | 636
Cc1c(-n2ccn3c(S(=O)(=O)Cc4ccccc4C(C)(C)C)nnc3c2=O)cccc1C(F)(F)F [Compound 129, 3-(2-tert-butylbenzylsulfonyl)-7-(2-methyl-3-(trifluoromethyl)phenyl)-[1,2,4]triazolo[4,3-a]pyrazin-8(7H)-one] | 17
O=c1c2nnc(SCc3ccccc3)n2ccn1-c1ccccc1Cl [Compound 81, 3-(benzylthio)-7-(2-chlorophenyl)-[1,2,4]triazolo[4,3-a]pyrazin-8(7H)-one] | 946
Cc1c(-n2ccn3c(S(=O)(=O)Cc4ccccc4Cl)nnc3c2=O)cccc1C(F)(F)F [Compound 121, 3-(2-chlorobenzylsulfonyl)-7-(2-methyl-3-(trifluoromethyl)phenyl)-[1,2,4]triazolo[4,3-a]pyrazin-8(7H)-one] | 11.9
Cc1c(Cl)cccc1-n1ccn2c(SCc3ccccc3-c3cccnc3)nnc2c1=O [Compound 36, 7-(3-chloro-2-methylphenyl)-3-(2-(pyridin-3-yl)benzytthio)-[1,2,4]triazolo[4,3-a]pyrazin-8(7H)-one] | 147
Cc1c(Cl)cccc1-n1ccn2c(N(C)Cc3ccccc3)nnc2c1=O [Compound 169, 3-(benzyl(methyl)amino)-7-(3-chloro-2-methylphenyl)-[1,2,4]triazolo[4,3-a]pyrazin-8(7H)-one] | 1590
Cc1c(-n2ccn3c(S(=O)(=O)Cc4ccccc4-c4ccc(C(F)(F)F)cc4)nnc3c2=O)cccc1C(F)(F)F [Compound 164, 7-(2-methyl-3-(trifluoromethyl)phenyl)-3-((4′-(trifluoromethyl)biphenyl-2-yl)methylsulfonyl)-[1,2,4]triazolo[4,3-a]pyrazin-8(7H)-one] | 629
O=c1c2nnc(S(=O)(=O)Cc3cccc4ccccc34)n2ccn1-c1cccc(C(F)(F)F)c1Cl [Compound 145, 7-(2-chloro-3-(trifluoromethyl)phenyl)-3-(naphthalen-1-ylmethylsulfonyl)-[1,2,4]triazolo[4,3-a]pyrazin-8(7H)-one] | 47.9
Cc1ccccc1CSc1nnc2c(=O)n(-c3cccc(C(F)(F)F)c3C)ccn12 [Compound 57, 7-(2-methyl-3-(trifluoromethyl)phenyl)-3-(2-methylbenzylthio)-[1,2,4]triazolo[4,3-a]pyrazin-8(7H)-one] | 86.4
Cc1c(Cl)cccc1-n1ccn2c(SCc3cccc(-c4ccccc4)c3)nnc2c1=O [Compound 46, 3-(biphenyl-3-ylmethylthio)-7-(3-chloro-2-methylphenyl)-[1,2,4]triazolo[4,3-a]pyrazin-8(7H)-one] | 3500
O=c1c2nnc(SCc3cc(Cl)cc(Cl)c3)n2ccn1-c1cccc(Cl)c1Cl [Compound 67, 3-(3,5-dichlorobenzylthio)-7-(2,3-dichlorophenyl)-[1,2,4]triazolo[4,3-a]pyrazin-8(7H)-one] | 168
Cc1c(Cl)cccc1-n1ccn2c(SCc3cccc(Br)c3)nnc2c1=O [Compound 86, 3-(3-bromobenzylthio)-7-(3-chloro-2-methylphenyl)-[1,2,4]triazolo[4,3-a]pyrazin-8(7H)-one] | 446
Cc1c(Cl)cccc1-n1ccn2c(SCc3ccccc3C(C)(C)C)nnc2c1=O [Compound 19, 3-(2-tent-butylbenzylthio)-7-(3-chloro-2-methylphenyl)-[1,2,4]triazolo[4,3-a]pyrazin-8(7H)-one] | 165
Cc1c(Cl)cccc1-n1ccn2c(N(Cc3ccccc3)CC3CC3)nnc2c1=O [Compound 171, 3-(benzyl(cyclopropylmethyl)amino)-7-(3-chloro-2-methylphenyl)-[1,2,4]triazolo[4,3 - a]pyrazin-8(7H)-one] | 229
Cc1c(Cl)cccc1-n1ccn2c(SCc3ccccc3-c3ccccc3)nnc2c1=O [Compound 54, 3-(biphenyl-2-ylmethylthio)-7-(3-chloro-2-methylphenyl)-[1,2,4]triazolo[4,3-a]pyrazin-8(7H)-one] | 44
Cc1ccc(-c2ccccc2CSc2nnc3c(=O)n(-c4cccc(C(F)(F)F)c4C)ccn23)s1 [Compound 6, 7-(2-methyl-3-(trifluoromethyl)phenyl)-3-(2-(5-methylthiophen-2-yl)benzylthio)-[1,2,4]triazolo[4,3-a]pyrazin-8(7H)-one] | 37
Cc1c(Cl)cccc1-n1ccn2c(SCc3ccc(C(C)C)cc3)nnc2c1=O [Compound 104, 7-(3-chloro-2-methylphenyl)-3-(4-isopropylbenzylthio)-[1,2,4]triazolo[4,3-a]pyrazin-8(7H)-one] | 2740
[2H]c1c([2H])c([2H])c(C([2H])([2H])S(=O)(=O)c2nnc3c(=O)n(-c4cccc(Cl)c4C)ccn23)c([2H])c1[2H] [Compound 140, deuterated-7-(3-chloro-2-methylphenyl)-3-[(phenyl-(d5)methyl-(d2))sulfonyl]-1,2,4-triazolo[4,3-a]pyrazin-8(7H)-one] | 31.8
Cc1c(Cl)cccc1-n1ccn2c(S(=O)(=O)Cc3cccc(F)c3Cl)nnc2c1=O [Compound 130, 7-(3-chloro-2-methylphenyl)-3-(2-chloro-3-fluorobenzylsulfonyl)-[1,2,4]triazolo[4,3-a]pyrazin-8(7H)-one] | 17.3
Cc1c(Cl)cccc1-n1ccn2c(SCc3ccccc3SC(F)(F)F)nnc2c1=O [Compound 52, 7-(3-chloro-2-methylphenyl)-3-(2-(trifluorornethylthio)benzylthio)-[1,2,4]triazolo[4,3-a]pyrazin-8(7H)-one] | 316
